Measurements as given in PubChem BioAssay AID602186 (Broad Institute, 2012).
Calls of active or inactive are those of the source.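 The calls were made as follows: active = compounds reducing C. glabrata growth on glycerol with a fitted half-effect dose within twice the top tested dose; inconclusive = flat curve with moderate growth loss, or an unreliable fit; inactive = the rest.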

System: not listed separately
Assay: C. glabrata growth inhibition on glycerol, dose response, glycerol medium, OD600, dry powder (AID 602186)
Conditions: Candida glabrata growth in glycerol, OD600, 48 h; at 19.5 µM (top of the series)

| SMILES | activity change, negative = inhibition |
| --- | --- |
| O=C(Nc1nc(-c2ccc3c(c2)CCCC3)cs1)c1ccccc1 | 25.4% (inactive) |
| COc1ccc(-c2nnc(NC(=O)c3ccc(S(=O)(=O)N4CCCc5ccccc54)cc3)o2)cc1 | -21.8% (inactive) |
| NC(=O)c1cccc(C(=O)Nc2nc(-c3ccc4c(c3)CCCC4)cs2)c1 | 9.1% (inactive) |
| Cc1cc(C)n(-c2nc3ccccc3c(=O)n2OCC#N)n1 | -19.2% (inactive) |
| O=C(Nc1nc(-c2ccccc2)cs1)c1ccc(Br)s1 | -6.9% (inactive) |
| Cc1ccc(C(=O)Nc2nnc(-c3ccccc3)o2)cc1C | 5.05% (inactive) |
| O=C(Nc1nnc(-c2ccc3c(c2)CCCC3)o1)c1ccc(Cl)cc1Cl | -18.1% (inactive) |

Same assay, conditions: Candida glabrata growth in glycerol, OD600, 48 h; at 23.5 µM (top of the series)

| SMILES | activity change, negative = inhibition |
| --- | --- |
| Oc1c(CN2CCN(c3ccccc3)CC2)cc(Cl)c2cccnc12 | -34.4% (inactive) |

System: Candida glabrata growth in glycerol, OD600, 48 h
Assay: as above
Conditions: not given

| SMILES | AC50 |
| --- | --- |
| C=CCNC(=S)N/N=C(\C)c1ccccn1 | 508 nM |
| O=C(Nc1nc(-c2ccccn2)cs1)c1ccc(Cl)s1 | 1380 nM |
| C/C(=N\NC(=O)c1cc2ccccc2cc1O)c1ccccn1 | 8890 nM |
| Oc1c(CN2CCc3ccccc3C2)cc(Cl)c2cccnc12 | 13600 nM |
| Oc1c(C(c2ccccc2Cl)N2CCCCC2)ccc2cccnc12 (centres undefined) | 9060 nM |
| O=C(Nc1nnc(-c2ccc3c(c2)CCCC3)o1)c1ccccc1 | 10300 nM |
| Cc1ccc(C(=O)Nc2nc(-c3ccccn3)cs2)cc1 | 3280 nM |
| Cc1ccc(-c2nc3c(Cl)cc(Cl)cc3c(=O)n2O)cc1 | 1390 nM |
| Oc1c(C(c2ccc(Cl)cc2)N2CCCC2)ccc2cccnc12 (centres undefined) | 13400 nM |
| CCOC(=O)N1C(=O)C2(CCCCC2)N(c2ccc(C)cc2)C1=S | 141 nM |
| O=C(NNC(=S)Nc1ccc(Cl)c(Cl)c1)c1ccccn1 | 119 nM |
| CCCC(=O)NC(c1cccs1)c1cc(Cl)c2cccnc2c1O (centres undefined) | 2140 nM |
| O=C(Nc1nc(-c2ccccn2)cs1)c1ccccc1 | 11500 nM |
| O=C(Oc1c(Cl)cc(Cl)c2cccnc12)c1ccco1 | 617 nM |
| O=C(Nc1nc(-c2ccccn2)cs1)c1ccc(Br)s1 | 1200 nM |
| CN1CCN(C(c2ccc(C(F)(F)F)cc2)c2ccc3cccnc3c2O)CC1 (centres undefined) | 2960 nM |
